# Measured values as given in article PMC7253723, “Chain-End Modifications and Sequence Arrangements of Antimicrobial Peptoids for Mediating Activity and Nano-Assembly” (Frontiers in Chemistry, 2020).
# Values joined by “and” are separate entries in the source; they are usually repeats but may differ in a detail not shown here. Equal entries are not always repeated. Square brackets hold non-standard residues; d marks the D form. Peptide text beside a SMILES is read from it. * marks the point of attachment. Palmitoyl = CCCCCCCCCCCCCCCC(=O)*; Nspe = C[C@H](NCC(=O)O)c1ccccc1; AEEA = NCCOCCOCC(=O)O; Nlys = NCCCCNCC(=O)O
# Experiments:
# Assay type in all cases: physicochemical
# [1] = Small angle X-ray scattering (SAXS), size of nano-assemblies; conditions: 1 wt.% peptoid solution, fitted
# Experimental: SAXS experiments were performed on the bioSAXS beamline B21 at Diamond Light Source, U.K., using a previously established protocol (Castelletto et al., [2019]). Briefly, solutions containing 1 wt.% peptoid were loaded into a set of PCR tubes fitted in the 96-well plate of the BioSAXS robot. From there, the robot loaded the solutions into a quartz capillary perpendicularly placed in the path of the incident X-ray beam. SAXS data, collected using a Dectris PILATUS 2 M detector at a fixed camera length of 3.9 m, is presented as scattering intensity vs. q = 4π sinθ /λ (2θ: scattering angle; wavelength: λ = 1 Å). See Supplementary Information for description of SAXS data fitting.
# [2] = Analytical RP-HPLC elution (ACN %) as measure of hydrophobicity; conditions: chromatographic, C18 column (250 × 4.6 mm Nucleosil), 30 min gradient 5–95% ACN in water with 0.1% TFA, 1 mL/min, used as measure of hydrophobicity
# Experimental: Peptoids were synthesized on resin manually or with an automated synthesizer (Prelude X, Gyros Protein Technologies) using a solid phase “submonomer” approach (Zuckermann et al., [1992]; Lau, [2014]; Lau et al., [2017]). Briefly, the Fmoc protected rink amide resin was deprotected with 20% piperidine for 20 min, applied twice. Each residue was added by treatment to a mixture of bromoacetic acid (20 times excess) and diisopropyl-carbodiimide (18.5 times excess) for 15 min, followed by a halo-substitution reaction with appropriate primary amine submonomers. For the attachment of a di ethylene glycol linker, Fmoc-amino-3,6 dioxaoctanoic acid (1.8 mmol), and equivalent moles of HBTU ((2-(1H-benzotriazol-1-yl)-1,1,3,3-tetramethyluronium hexafluorophosphate) were reacted with the terminal amino group in the presence of N,N-diisopropylethylamine (DIPEA, 2.7 mmol). This reaction was carried out for 2 h at 37°C and repeated a second time for 4 h, to ensure coupling. Like resin Fmoc deprotection, EG2 N-terminal Fmoc deprotection was achieved using 20% piperidine for 20 min, applied twice. Different chain lengths of saturated fatty acids, i.e., pelargonic acid (C8), lauric acid (C11), and palmitic acid (C15) were subsequently coupled using the HBTU amide coupling as reported previously (Lau et al., [2017]). After solid phase synthesis, the resin was cleaved and side chains were deprotected for 30 min using a standard TFA:TIPS:H2O cocktail (95:2.5:2.5 v/v/v). Excess TFA was removed using a rotary evaporator and the peptoid was precipitated from the oily product using diethyl ether. The collected material was dissolved in small amounts of 1:1 acetonitrile:water (ACN:H2O) to ease sample transfer, and further dried in a lyophilizer. Dried crude products were weighed and dissolved in ACN-H2O mixtures for preparative RP-HPLC (Dionex Ultimate 3000) with a C18 column (250 × 10 mm Phenomenex Jupiter). Fractions containing the pure product were identified by ESI-LC-MS (Agilent 1200 with a Poroshell C18 column coupled to an Agilent 6130 mass spectrometer) and by analytical RP-HPLC (Dionex P680) using a C18 column (250 × 4.6 mm “Nucleosil”) with a 30 min gradient of 5–95% acetonitrile (ACN) in water containing 0.1% TFA at 1 mL/min. The purified fractions of peptoids and lipopeptoids were later stored as aliquots at −20°C until further analysis.
# [3] = Cryo-TEM, size of nano-assemblies; conditions: vitrified sample
# Experimental: Sizes of selected lipopeptoid nano-assemblies were verified using a field emission cryo-electron microscope (JEOL JEM3200FSC), operating at 200 kV and at −187°C, configured in bright field mode and zero loss energy filtering (omega type) with a slit width of 20 eV. Sizes of selected lipopeptoids nano-assemblies were measured from photographs recorded using a Gatan Ultrascan 4000 CCD camera. Vitrified specimens were prepared on Quantifoil 3.5/1 holey carbon copper grids (hole size of 3.5 μm). The grids were first plasma cleaned using a Gatan Solarus 9500 plasma cleaner and then transferred into the environmental chamber of an automated FEI Vitrobot device at room temperature and 100% humidity. Thereafter, 3 μL of the sample solution was applied on the grid, which was blotted twice for 5 s and then vitrified in a 1:1 mixture of liquid ethane and propane at a temperature of −180°C. The grids with vitrified sample solution were maintained at liquid nitrogen temperature and then cryo-transferred to the microscope.
# [4] = Dynamic light scattering (DLS), hydrodynamic radius of nano-assemblies; conditions: 0.4 wt.% in deionized water, 0.22 μm filtered, 25°C, detection angle 90°
# Experimental: DLS measurements were carried out at room temperature (25°C) using an ALV/LSE-5004 instrument equipped with He-Ne laser (λ = 632.8 nm) at a detection angle of θ = 90° (Lau et al., [2017]). Samples were prepared at a concentration of 0.4 wt.% in deionized water (DI) water and further filtered using 0.22 μm pore size surfactant-free cellulose acetate (SFCA) syringe filters (Sigma Aldrich, UK) to avoid particulate contamination.
# [5] = Critical aggregation concentration (CAC) Nile red fluorescence assay; conditions: room temperature
# Experimental: Nile red (NR) fluorescence was used to measure critical aggregation concentration (CAC) for the synthesized lipopeptoids. Lipopeptoids were dissolved at 2.5 × 10^−2 to 1 wt.% in a dilute solution of Nile red (0.25 μg/100 mL, i.e. ~10 nM concentration) prepared in water. NR was excited at 552 nm and emission was recorded at room temperature in the range 550–750 nm using a 10.0 × 5.0 mm^2 quartz cell (Jasco spectrofluorimeter FP-6500). The intensity of the peak centered around 610 nm is shown in the data presented in Section results and discussion.
# We first examined with a CAC assay whether coupling a hydrophobic tail to AMPMs and inserting the kk and EG2 components is a viable design for generating self-assembling lipopeptoids. The CAC measures the concentration above which hydrophobic pockets (e.g., lipophilic cores of micelles) are formed, and lower CACs indicate higher propensities of self-assembly. In our experiments, the CAC is indicated by an inflection in the increase in emission intensity of a lipophilic fluorophore tracer (Nile Red) that emits more strongly when partitioned into hydrophobic lower dielectric environments (see Figure S6 for an example analysis).
compound,measurement,setting,value
CCCCCCCCCCCCCCCC(=O)NCCOCCOCC(=O)N(CCCCN)CC(=O)N(CC(=O)N(CC(=O)N(CCCCN)CC(=O)N(CC(=O)N(CC(=O)N(CCCCN)CC(=O)N(CC(=O)N(CC(=O)N(CCCCN)CC(=O)N(CC(=O)N(CC(N)=O)[C@@H](C)c1ccccc1)[C@@H](C)c1ccccc1)[C@@H](C)c1ccccc1)[C@@H](C)c1ccccc1)[C@@H](C)c1ccccc1)[C@@H](C)c1ccccc1)[C@@H](C)c1ccccc1)[C@@H](C)c1ccccc1 [C15-EG2-(kss)4] ({Palmitoyl-AEEA}-[Nlys][Nspe][Nspe][Nlys][Nspe][Nspe][Nlys][Nspe][Nspe][Nlys][Nspe][Nspe]-NH2),radius of nano-assemblies (SAXS),[1],24 ± 5 nm
same,elution ACN % (RP-HPLC retention),[2],82 ACN %
same,diameter of smallest non-compact aggregates (TEM),[3],ca. 5 nm
same,hydrodynamic radius (RH),[4],ca. 50 nm
same,CAC,"[5]; Nile red fluorescence (~10 nM NR in water), lipopeptoids 2.5 × 10^-2 to 1 wt.%, excitation 552 nm, peak around 610 nm, inflection in emission intensity",38 µM and 38 ± 3 µM
same,CAC,"[5]; Nile red fluorescence in water, CAC expressed in wt.%",0.0075 wt.%
